# Measurements: patent US20110104103A1, “Method of conjugating therapeutic compounds to cell targeting devices via metal complexes” (KREATECH BIOTECHNOLOGY B.V., priority 2005, published 2011)
# Entries after “also recorded” stand apart in the source; their conditions may differ.
# Tests used:
# [1] = tested on: activated hepatic stellate cells (HSC); assay: Immunohistochemical staining of fibrosis markers in HSC after 24 h incubation; format: cell-based; details: conjugates 1 mg/ml (100 μM PTX), non-targeted PTX 1 mM
# Description: The pharmacological effects of the conjugates were tested on different cultured cell types, e.g. activated hepatic stellate cells (HSC), kidney tubular cells (HK-2 cells) or human umbilical cord endothelial cells (HUVEC). Typically, cells were incubated for 24 h at 37° C. with the conjugates. Subsequently, the cells were subjected to analyses related to pharmacological activity of the coupled drug (gene expression analysis, immunohistochemcial evaluation of effect markers), or assays related to potential cytotoxicity of the complexes (cell viability assays, apoptosis assays).
# FIG. 5. […] Cells were stained for collagen type I or α-smooth muscle actin and counterstained with hematoxillin. […] Magnification 10×. One of the hallmarks of liver fibrosis is the induced expression and production of a-smooth muscle actin (aSMA) and collagen type 1 by activated HSC. These proteins were therefore selected as read-out parameters of the antifibrotic effects of the targeted PTX.
# [2] = 5 mg/kg of free SB202190, 4 h after administration; cited from earlier work
# [3] = tested on: IL8 gene expression in HUVEC treated with TNF; assay: IL8 gene expression in TNF-treated HUVEC; format: cell-based, human; details: 10 μM
# UUO rats = assay: Unilateral ureteral obstruction (UUO) model of renal fibrosis; format: in vivo; details: day 3
# Description: Animals were divided into 4 groups: normal rats, fibrotic control animals (vehicle, 5% glucose), TKI-LZM (25 mg/kg equiv. to 630 μg/kg TKI) and free, unconjugated TKI (630 μg/kg). TKI was dissolved in 20% hydroxylpropyl-β-cyclodextrin in water with 5% DMSO, whereas TKI-LZM was dissolved in 5% glucose. To allow unhindered uptake of the products in the kidneys, rats were injected intravenously with either of these compounds 2 h before the uretheral obstruction. Left kidneys and ureter were exposed via a flank-incision under isoflurane anesthesia after which the ureter was ligated at three sites with 4-0 silk near the hilum. After 3 days, animals were sacrificed under anesthesia and kidneys were gently flushed and harvested. Kidney cortex pieces were snap-frozen to isolate RNA as described above. Kidney pieces were fixed in 4% formalin solution in PBS to make paraffin-embedded sections for anti-α-SMA and ED-1 immunohistochemical staining and morphometric analysis.
# [4] = Organ distribution and liver losartan levels in BDL rats; format: in vivo
# Description: The extraction was performed by adding 3 ml of methyl butyl ether to 200 μl of liver homogenate and vortexing for 5 min. Layers were separated by centrifugation at 900×g for 5 min and the aqueous layer was frozen in liquid nitrogen. The upper organic layer was transferred to another borosilicate glass tube and evaporated completely at 60° C. The extraction procedure was repeated twice and the total residue was reconstituted in 200 μl of mobile phase. Chromatography was carried out using a C18 (C18, 5 μm, 4.6×150 mm) reversed-phase column (Surefire, Waters Inc., Milford, Mass., USA) at 40° C. with an isocratic mobile phase consisting of acetonitrile-water-trifluoroacetic acid (30:70:0.1, v/v/v; pH 2.0).
# [5] = tested on: hepatic fibrosis in BDL rats; assay: Antifibrotic effect of losartan-cisULS-M6PHSA in BDL model of liver fibrosis; format: in vivo; details: four daily doses
# Description: Ten minutes after the last dose, animals were sacrificed and blood and liver samples were obtained. […] The extraction was performed by adding 3 ml of methyl butyl ether to 200 μl of liver homogenate and vortexing for 5 min. Layers were separated by centrifugation at 900×g for 5 min and the aqueous layer was frozen in liquid nitrogen. The upper organic layer was transferred to another borosilicate glass tube and evaporated completely at 60° C. The extraction procedure was repeated twice and the total residue was reconstituted in 200 μl of mobile phase. Chromatography was carried out using a C18 (C18, 5 μm, 4.6×150 mm) reversed-phase column (Surefire, Waters Inc., Milford, Mass., USA) at 40° C. with an isocratic mobile phase consisting of acetonitrile-water-trifluoroacetic acid (30:70:0.1, v/v/v; pH 2.0).
# Animal experiments were performed as described above.
# [6] = molecular target: T1, αvβ3-integrin expressed on the surface of HUVEC (Homo sapiens, UniProt P05106+P06756); assay: Competitive displacement of 125I-labeled echistatin; details: displacement of 125I-echistatin, read-out: IC50 (binding affinity)
# T1 construct: αvβ3-integrin expressed on the surface of HUVEC; endogenous in cells; host or cells: HUVEC (confluent monolayers)
# Description: In a different experimental setup that allowed the calculation for binding constants, we explored the affinity of RGD-equipped PTK787-cisULS-albumins. ^125I-labeled echistatin was used as a radioligand for αvβ3-integrin expressed on the surface of HUVEC. Competitive binding studies were performed by coincubating using confluent monolayers of HUVEC with the radiolabeled ligand and non-radiolabeled complexes.
# [7] = Platinum-related toxicity of SB202190-cisULS-LZM in normal rats; format: in vivo, Male Wistar rats
# From the text: In addition to drug related effects, we investigated whether administration of cell targeting complexes to healthy rats induced potential platinum related toxicity. Since the kidney is one of the major sites of platinum toxicity of cytostatic compounds, we performed these studies with SB202190-cisULS-LZM which accumulates in the kidney. We investigated morphology and induction of apoptosis (TUNEL staining), as well as basic renal parameters.
# In order to detect potential platinum-related toxicity of kidney directed cell targeting complexes, we evaluated SB202190-cisULS-LZM in healthy rats.
# To examine the effect on renal function, serum and urine creatinine levels were determined and creatinine clearances were calculated. […] To calculate proteinuria for the SB202190-cisULS-LZM group, the mean of the urinary protein levels at different days was taken. TUNEL stainings were performed on frozen kidney sections to examine the number of apoptotic cells. In addition, we determined the platinum levels in kidneys using […] after digestion of the tissue in concentrated nitric acid for 24 h at room temperature and heating at 70° C. until the formation of clear solution.
# [8] = Drug release studies (stability of drug-carrier linkage); format: in vitro ADME
# Description: The stability of the drug-carrier linkage was investigated by incubating cell targeting complexes at 37° C. under several conditions, e.g. buffers, buffers spiked with drug releasing substances or biological media.
# [9] = Pharmacokinetic evaluation of kidney directed complexes in healthy rats; format: in vivo, Wistar rats
# Description: Organ distribution studies with this type of cell targeting complexes were performed in healthy Wistar rats. All in vivo experiments were approved by the Local Committee for Care and Use of Laboratory Animals.
# Rats were injected intravenously with a single dose of the SB202190-cisULS-lysozyme conjugate (16 mg/kg equivalent to 376 μg/kg of SB202190; dissolved in 5% glucose) via the penile vein. Animals were sacrificed at different time points between 1 and 72 h after administration. Blood samples were collected by heart puncture and kidneys were isolated after flushing the organs gently with saline. Serum and organs were snap-frozen into liquid nitrogen immediately. Urine samples were collected using metabolic cages and combined with the urine collected from urinary bladder after sacrificing the animals. Kidneys were weighed, homogenized (1:3 w/v in PBS, Turrax homogenization) and then stored at −80° C. Released drug amounts were estimated by HPLC analysis after extraction as described before. To estimate total drug (bound plus released), samples were treated with KSCN to release SB202190 from the ULS linker as described above and then subjected to HPLC analysis. Anti-LZM immunohistochemical staining was performed on cryostat kidney sections to detect the uptake of the conjugate in tubular cells.
# Renal drug levels were assayed in KSCN-treated kidney homogenates and serum samples using HPLC methods optimized for the respective drugs. Y27632 was analyzed on a C18 reversed-phase SunFire™ column C18 using a mobile phase of water-methanol-trifluoroacetic acid (86:14:0.1, v/v/v; pH 2.0) at a flow rate of 1 ml/min. TKI was analyzed on the same column using a mobile phase consisted of water-acetonitrile-trifluoroacetic acid (91:09:0.1, v/v/v; pH 2.0) at a flow rate of 1 ml/min.
# I/R rats = assay: Unilateral ischemia/reperfusion injury (I/R) model; format: in vivo
# [10] = tested on: endothelial cells (HUVEC); assay: Binding of 89Zr-radiolabeled RGD-equipped complex to endothelial cells; parameters: species or system human; details: 4° C. for 4 h
# Description: The interaction of cell targeting complexes with target cells was investigated in cultured target cells. Typically, in vitro targeting studies were performed by incubating target cells with the complexes, at either 4° C. or 37° C. Binding and/or internalization of the complexes by target cells was detected by either immunohistochemical staining for the complex (e.g. anti-HSA or anti-LZM staining) or by quantification of a radioactive reporter group that had been introduced in the complex (e.g. ^125I).
# Binding of RGD-equipped complexes to endothelial cells was studied using ^89Zr-radiolabeled compounds.
# [11] = normal rats, mean ± SEM, SB-ULS-LZM at 24, 32, 48 and 72 h, cisplatin 3 mg/kg i.v. at 24 h
# [12] = four i.v. doses, 20 mg/kg conjugate or 555 μg/kg Y27632
# T1 sequence (P06756 31-889 limits assumed): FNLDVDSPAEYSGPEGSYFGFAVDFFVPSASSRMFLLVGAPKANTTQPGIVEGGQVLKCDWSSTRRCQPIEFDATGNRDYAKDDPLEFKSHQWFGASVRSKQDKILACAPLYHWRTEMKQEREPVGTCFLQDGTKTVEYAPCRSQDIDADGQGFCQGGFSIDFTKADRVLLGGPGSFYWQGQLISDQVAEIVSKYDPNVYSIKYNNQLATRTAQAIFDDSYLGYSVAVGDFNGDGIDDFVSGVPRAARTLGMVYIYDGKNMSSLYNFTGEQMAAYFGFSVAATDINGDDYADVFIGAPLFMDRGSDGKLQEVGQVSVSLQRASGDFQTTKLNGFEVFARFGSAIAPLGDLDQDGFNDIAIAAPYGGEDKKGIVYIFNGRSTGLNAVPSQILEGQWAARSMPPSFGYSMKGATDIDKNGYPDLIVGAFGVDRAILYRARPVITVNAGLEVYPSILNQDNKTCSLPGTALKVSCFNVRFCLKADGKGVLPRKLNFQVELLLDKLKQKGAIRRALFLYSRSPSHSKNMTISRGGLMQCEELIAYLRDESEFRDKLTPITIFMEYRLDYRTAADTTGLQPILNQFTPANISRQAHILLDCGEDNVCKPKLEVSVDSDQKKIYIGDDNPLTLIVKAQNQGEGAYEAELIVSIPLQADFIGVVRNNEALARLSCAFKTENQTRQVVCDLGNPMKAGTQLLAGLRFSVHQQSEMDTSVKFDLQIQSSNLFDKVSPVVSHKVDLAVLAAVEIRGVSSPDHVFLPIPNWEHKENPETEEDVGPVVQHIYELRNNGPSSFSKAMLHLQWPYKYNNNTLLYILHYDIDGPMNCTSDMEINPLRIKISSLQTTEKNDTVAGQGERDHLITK
# T1 sequence (P06756 891-1048 partner limits assumed): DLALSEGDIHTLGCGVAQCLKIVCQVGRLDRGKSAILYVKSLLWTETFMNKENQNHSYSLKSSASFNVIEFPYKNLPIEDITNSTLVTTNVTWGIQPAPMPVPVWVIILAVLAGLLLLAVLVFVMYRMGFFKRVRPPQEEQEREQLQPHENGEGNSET
# T1 sequence (P05106 27-788): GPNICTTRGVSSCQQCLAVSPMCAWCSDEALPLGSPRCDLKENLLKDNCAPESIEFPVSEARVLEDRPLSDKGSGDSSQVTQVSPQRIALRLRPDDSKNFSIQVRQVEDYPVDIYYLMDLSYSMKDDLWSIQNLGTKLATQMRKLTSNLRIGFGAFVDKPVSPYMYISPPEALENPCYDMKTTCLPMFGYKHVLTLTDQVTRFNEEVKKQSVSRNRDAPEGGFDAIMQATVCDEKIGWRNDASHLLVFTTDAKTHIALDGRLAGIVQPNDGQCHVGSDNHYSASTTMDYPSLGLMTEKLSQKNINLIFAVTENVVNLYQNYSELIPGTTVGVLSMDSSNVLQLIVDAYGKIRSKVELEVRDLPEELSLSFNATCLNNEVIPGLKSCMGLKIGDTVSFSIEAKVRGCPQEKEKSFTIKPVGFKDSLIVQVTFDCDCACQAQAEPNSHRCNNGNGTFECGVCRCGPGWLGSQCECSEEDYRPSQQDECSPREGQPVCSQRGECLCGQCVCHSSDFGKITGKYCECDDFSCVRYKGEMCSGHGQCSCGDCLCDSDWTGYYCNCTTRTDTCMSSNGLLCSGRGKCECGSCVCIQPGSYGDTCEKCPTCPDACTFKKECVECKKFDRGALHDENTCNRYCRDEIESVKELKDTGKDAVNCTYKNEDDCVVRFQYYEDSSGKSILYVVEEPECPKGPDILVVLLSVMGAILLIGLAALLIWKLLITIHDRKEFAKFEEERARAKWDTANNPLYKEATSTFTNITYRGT
compound,measurement,setting,value
"CC(=O)CCCCn1c(=O)c2c(ncn2C)n(C)c1=O [PTX, 3,7-dimethyl-1-(5-oxohexyl)purine-2,6-dione]",aSMA staining intensity,[1],reduced the intensity of both collagen type I production and aSMA
same,collagen type I staining,[1],reduced the intensity of both collagen type I production and aSMA
"Oc1ccc(-c2nc(-c3ccncc3)c(-c3ccc(F)cc3)[nH]2)cc1 [SB202190, 4-(-Fluorophenyl)-2-(4-hydroxy-phenyl)-5-(4-pyridyl)-1H-imidazole]",fraction distributed to the kidney,[2],0.2%
same,IL8 gene expression level after inhibition,[3],40%
"c1ccc(-c2n[nH]cc2-c2ccnc3ccccc23)nc1 [TKI, 3-(Pyridin-2-yl)-4-(4-quinonyl)-1H-pyrazole]",MCP-1 gene expression in kidney,UUO rats; single dose 25 mg/kg conjugate or 630 μg/kg TKI,did not lower the expressions of MCP-1
same,expression of the fibrosis marker α-SMA,UUO rats; single dose,significantly decreased
same,infiltrated macrophages (ED-1 immunostaining),UUO rats; single dose,a reduction of ED-1 immunostaining
CCCCc1nc(Cl)c(CO)n1Cc1ccc(-c2ccccc2-c2nn[nH]n2)cc1 [losartan],liver losartan as % of the cumulative dose,"[4]; BDL rats, 10 min after last dose",4%
same,concentration at 10 min,"[4]; rat, liver, oral, 5 mg/kg/day",12100 ng/g
same,"hepatic fibrosis, Sirius Red staining",[5],Severe bridging
same,αSMA-positive cells in liver,[5],marked accumulation of αSMA-positive cells
"RGDPEG-avidin: avidin with RGD-peptide via vinylsulfone-PEG-NHS, average 5.4 RGD groups per avidin",IC50,[6],0.134 µM
SB202190-cisULS-LZM,tubular cell apoptosis by TUNEL staining,[7]; as compared to untreated rats,no increase in the number of apoptotic cells
same,urinary protein levels,[7]; in comparison to untreated rats,an increase in urinary protein levels
same,TUNEL positive cells,"[7]; normal rats, kidney sections, mean ± SEM, cisplatin at 24 h",42.7 ± 18 numbers per field
same,Renal platinum concentration,"[7]; normal rats, ICP-AAS, mean ± SEM",37.0 ± 1.2 nmol/g
same,Change in body weight,"[7]; normal rats, mean ± SEM",+0.3 ± 1.2 %
same,Creatinine clearance,[7]; [11],0.8 ± 0.03 mL/min
same,urinary protein levels,[7]; [11],29.6 ± 2.0 mg/day
same,Stability / release of SB202190,[8]; 37° C. in PBS pH 7.4 or rat serum,high stability in buffer or serum
same,Release of SB202190,"[8]; 37° C., kidney homogenate in PBS 1/3 (w/v)",continuously released free drug
same,free drug in serum / serum stability,"[9]; 16 mg/kg i.v. single dose, 1-72 h",free drug was absent at all time points; also recorded: remained stable in the serum
same,accumulation in the kidneys,"[9]; 16 mg/kg i.v., within 1 h",20 % of the injected dose
same,accumulation in proximal tubular cells (anti-LZM staining),[9]; kidney sections,accumulation of the conjugate in proximal tubular cells was confirmed
same,renal levels of free and bound drug over time,[9]; single dose 16 mg/kg i.v.,continuous levels of both free drug and bound drug during a three-day period
"Y27632-cisULS-LZM: Y27632-cisULS reacted with met-LZM, 1-2 Y27632 per LZM","infiltration of macrophages, ED-1 staining morphometric score",I/R rats; [12],significantly reduced the morphometric score of the stained areas
same,α-SMA staining morphometric score,I/R rats; [12],significantly reduced the morphometric score of the stained areas
c(RGDf(ε-S-acetylthioacetyl)K) [RGD-peptide],displacement of binding of RGDPEG-SB202190-cisULS-HSA,[10],could be displaced
losartan-cisULS-LZM,number of infiltrated macrophages (ED-1),I/R rats; four doses 20 mg/kg/day,reduced the number of infiltrated macrophages
